Assay results published in US5658906A, “Cysteine protease and serine protease inhibitors” (Cephalon, Inc., priority 1996, dated 1997).

What was measured:
Calpain I = target: T1, Calpain I (Homo sapiens, UniProt P07384); assay: Inhibition and rate of inactivation of calpain I (Succ-Leu-Tyr-MNA hydrolysis); assay type: biochemical; details: mean of three or more independent analyses, corrected for substrate, k2 = kapp(1+[S]/Km), read-out: k2 (second order rate constant of inactivation), A = Calpain I
T1 construct: Calpain I was purified from human red blood cells; from tissue; host or cells: human red blood cells (packed, outdated)
T1 sequence (P07384 1-714): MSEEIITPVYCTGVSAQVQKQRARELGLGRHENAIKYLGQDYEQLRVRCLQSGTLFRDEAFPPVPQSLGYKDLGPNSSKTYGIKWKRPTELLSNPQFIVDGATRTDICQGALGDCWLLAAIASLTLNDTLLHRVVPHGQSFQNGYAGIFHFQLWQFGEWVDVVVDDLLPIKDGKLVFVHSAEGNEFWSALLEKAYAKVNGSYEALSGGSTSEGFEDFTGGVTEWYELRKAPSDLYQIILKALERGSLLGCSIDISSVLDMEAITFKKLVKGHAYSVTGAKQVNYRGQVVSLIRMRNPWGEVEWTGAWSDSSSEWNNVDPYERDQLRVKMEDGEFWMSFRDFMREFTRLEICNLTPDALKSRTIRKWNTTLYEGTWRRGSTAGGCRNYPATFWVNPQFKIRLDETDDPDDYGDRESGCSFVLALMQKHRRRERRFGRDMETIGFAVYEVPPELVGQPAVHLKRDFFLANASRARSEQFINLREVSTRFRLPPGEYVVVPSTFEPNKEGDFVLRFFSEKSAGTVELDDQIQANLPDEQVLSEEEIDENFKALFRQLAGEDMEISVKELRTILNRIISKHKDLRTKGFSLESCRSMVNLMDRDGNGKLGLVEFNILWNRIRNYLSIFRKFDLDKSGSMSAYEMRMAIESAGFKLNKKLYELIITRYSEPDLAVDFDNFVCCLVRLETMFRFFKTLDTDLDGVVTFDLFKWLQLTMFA
T1 sequence (P04632 1-268 partner): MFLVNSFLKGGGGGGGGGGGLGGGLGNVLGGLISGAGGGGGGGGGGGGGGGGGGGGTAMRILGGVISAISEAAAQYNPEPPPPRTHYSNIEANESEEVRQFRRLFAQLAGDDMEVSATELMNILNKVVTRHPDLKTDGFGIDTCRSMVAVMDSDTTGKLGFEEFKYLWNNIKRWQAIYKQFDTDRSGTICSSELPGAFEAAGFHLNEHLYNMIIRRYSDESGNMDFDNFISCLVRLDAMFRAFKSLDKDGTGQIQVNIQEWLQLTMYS
Description: To evaluate inhibitory activity of our compounds, stocks (40 times concentrated) of each compound to be tested were prepared in 100% anhydrous dimethyl sulfoxide (DMSO) and 5 μl of each inhibitor preparation was aliquoted into each of three wells of a 96 well plate. Calpain I was purified from human red blood cells using a modification of the method described by Lee, W. J. et al. (Biochem. Internatl. (1990)22(1): 163-171). Briefly, 3 units of packed outdated red blood cells were washed 3× by repeated centrifugation at 500 rpm for 10 minutes through 900 mls of 0.9% NaCl. Cells were lysed in 20 mM Tris/1 mM EDTA/1 mM EGTA/5 mM mercaptoethanol (Buffer A) and centrifuged for 1 hour at 12,000 rpm in a GSA rotor using a Sorval centrifuge. The supernatant was collected and applied to a DEAE-sepharose FF column equilibrated in Buffer A+25 mM NaCl. After washing the column in Buffer A+25 mM NaCl, the bound protein was eluted at 117 ml/hr with a 25 mM to 150 mM NaCl linear gradient in Buffer A collecting 200, 10 mL fractions. Two μl of every fifth fraction was applied to nitrocelluose using a dot blot apparatus and calpain containing fractions identified by Western analysis. For detection of calpain, nitrocellulose sheets were first blocked in 5% Blotto (5% Carnation instant milk/10 mM Tris/[…]150 mM NaCl) for 30 minutes, followed by incubation for 1 hour in antibody directed against Calpain I (rabbit anti-human calpain I polyclonal sera, 1:1000 dilution in 5% Blotto). After three 5 minutes washes in 10 mM Tris/150 mM NaCl/0.05% Tween 20 the nitrocellulose was incubated for 1 hour in secondary alkaline phosphatase conjugated antibody (Biorad Cat#170-6518 1:2000 in 5% Blotto). After three 5 minutes washes in 10 mM Tris/150 mM NaCl/0.05% Tween 20 and 1 wash in 10 mM Tris/150 mM NaCl the nitrocellulose was incubated for up to 2 hours in a colorimetric substrate solution (Biorad Alkaline Phosphatase Substrate conjugate kit, cat#170-6432). The reaction was stopped by washing in water. After fractions containing calpain, and those in between, were pooled, solid ammonium sulfate was added to achieve a 30% solution and the mixture stirred for 1 hour at 4° C. Following collection of the precipitate by centrifugation for 1 hour at 4° C. at 12K rpm in a GSA rotor, the supernatant was collected and brought to 45% in ammonium sulfate. After stirring for 1 hour at 4° C., centrifugation was repeated. The supernatant was discarded and the precipitate resuspended in approximately 7 mls and dialyzed overnight at 4° C. against Buffer A+50 mM NaCl. The sample was then applied to a S300 gel filtration column preequilibrated in Buffer A+50 mM NaCl, washed and eluted at a flow rate of 20 ml/hr, collecting 200, 4 ml fractions. The peak of calpain was determined by assaying aliquots of every fifth fraction for enzyme activity monitored by the hydrolysis of a fluorogenic dipeptide substrate as described below. The peak fractions were pooled and the enzyme preparation used to test compounds for inhibitory activity. As an alternate to enzyme isolated from tissue sources, recombinant human calpain I has also been used to monitor compounds for inhibitory activity.
The foregoing enzyme preparation was diluted into assay buffer (i.e., 50 mM Tris, 50 mM NaCl, 1 mM EDTA, 1 mM EGTA, and 5 mM β-mercaptoethanol, pH 7.5 including 0.2 mM Succ-Leu-Tyr-MNA) and 175 μl aliquoted into the same wells containing the independent inhibitor stocks as well as to positive control wells containing 5 μl DMSO, but no compound. To start the reaction, 20 μl of 50 mM CaCl2 in assay buffer was added to all wells of the plate, excepting three, which were used as background signal baseline controls. Substrate hydrolysis was monitored every 5 minutes for a total of 30 minutes using Flouroskan II (ex=340 nm; em=430 nm). Substrate hydrolysis in the absence of inhibitor was linear for up to 15 minutes. […]

Cathepsin B = target: T2, Cathepsin B (Homo sapiens, UniProt P07858); assay: Inhibition and rate of inactivation of cathepsin B (Cbz-Phe-Arg-AMC hydrolysis); assay type: biochemical; details: pH 6.0, 0.1 mM substrate, read-out: k2 (second order rate constant of inactivation), C = Cathepsin B
T2 construct: purchased Calbiochem 219364
Description: Additionally, the order of reagents added to the plate was altered because both enzymes are constitutively active. Following inhibitor addition to the plates appropriate 2× concentrated stock dilutions of the enzyme preparations were made in assay buffer and 100 ul added to each well. The assay was initiated by addition of 100 ul of 2× concentrated stock dilution of substrate in assay buffer. Substrate hydrolysis was monitored using a Fluroskan II (ex=390 nm; em=460 nm).
Inhibition of enzyme activity was calculated as the percent decrease in the rate of substrate hydrolysis in the presence of inhibitor (.upsilon.i) relative to the rate in its absence (.upsilon.o). Comparison between .upsilon.o and .upsilon.i was made within the linear range for substrate hydrolysis. For screening, compounds were tested at 10 μM. Compounds having ≥50% inhibition at 10 μM were considered active. Apparent second order rate constants were determined from analysis of reaction progress curves under pseudo-first order conditions. Each determination represents the mean of three or more independent single cuvette analyses continually monitored via a Perkin-Elmer LS50B spectrofluorimeter. The rate of inhibition of hydrolysis was obtained by fitting the curve to the exponential equation (1):
y=Ae^-k.spsb.obs·t +B (1)
where y (Pt) is the product formed at time t. A and B are constants. A, the amplitude of the reaction, is given by [Po -P.varies. ] and B (=P.varies.) is the maximal product formed when the reaction is […]. This was corrected for the presence of equation (2): […]

SMILES | kinact/KI (Calpain I) | kinact/KI (Cathepsin B)
CC(C)C[C@H](NC(=O)OCc1ccccc1)C(=O)N[C@@H](Cc1ccccc1)C(=O)COn1nnc2c(Cl)cccc21 [Example 14, 1-[N-[N-Benzyloxycarbonyl-L-leucyl]-3S-4-phenyl-3-amino-2-oxybutyloxy]-4'-chlorobenzotriazole] | 157000 M⁻¹ s⁻¹ | –
CC(C)C[C@H](NC(=O)OCc1ccccc1)C(=O)N[C@@H](Cc1ccccc1)C(=O)COn1nnc2ccc(-c3ccccc3)cc21 [Example 15, 1-[N-[N-Benzyloxycarbonyl-L-leucyl]-3S-4-phenyl-3-amino-2-oxybutyloxy]-6'-phenylbenzotriazole] | 77000 M⁻¹ s⁻¹ | 16000 M⁻¹ s⁻¹
CC(C)C[C@H](NC(=O)OCc1ccccc1)C(=O)N[C@@H](Cc1ccccc1)C(=O)COn1nnc2c(Cl)c(Cl)c(Cl)c(Cl)c21 [Example 20, 1-[N-[N-Benzyloxycarbonyl-L-leucyl]-3S-4-phenyl-3-amino-2-oxybutyloxy]-4',5'6',7'-tetrachlorobenzotriazole] | 1300 M⁻¹ s⁻¹ | –
CC(C)C[C@H](NC(=O)OCc1ccccc1)C(=O)N[C@@H](Cc1ccccc1)C(=O)COn1nnc2c(Cl)cc(Cl)c(Cl)c21 [Example 21, 1-[N-[N-Benzyloxycarbonyl-L-leucyl]-3S-4-phenyl-3-amino-2-oxybutyloxy]-4',6',7'-trichlorobenzotriazole] | 1800 M⁻¹ s⁻¹ | 10000 M⁻¹ s⁻¹
COc1cc2nnn(OCC(=O)[C@H](Cc3ccccc3)NC(=O)[C@H](CC(C)C)NC(=O)OCc3ccccc3)c(=O)c2cc1OC [Example 29, 1-[N-[N-Benzyloxycarbonyl-L-leucyl]-3S-4-phenyl-3-amino-2-oxobutyloxy]-3-(6',7'-dimethoxy)benzotriazin-4-one] | 171000 M⁻¹ s⁻¹ | –
CC(C)C[C@H](NC(=O)OCc1ccccc1)C(=O)N[C@@H](Cc1ccccc1)C(=O)COn1nnc2ccc(Cl)cc2c1=O [Example 30, 1-[N-[N-Benzyloxycarbonyl-L-leucyl]-3S-4-phenyl-3-amino-2-oxobutyloxy]-3-(6'-chloro)benzotriazin-4-one] | 180000 M⁻¹ s⁻¹ | –
CC(C)C[C@H](NC(=O)[C@H](CC(C)C)NC(=O)OCc1ccccc1)C(=O)COn1nnc2ccccc2c1=O [Example 31, 1-[N-[N-Benzyloxycarbonyl-L-leucyl]-3S-5-methyl-3-amino-2-oxohexyloxy]-3-benzotriazin-4-one] | 46000 M⁻¹ s⁻¹ | –
CC[C@H](C(=O)C[C@@H](CC(C)C)C(=O)N[C@@H](Cc1ccccc1)C(=O)COn1nnc2ccccc21)c1ccccc1 [Example 46, 1-[N-[2R-(2-methylpropyl)-1,4-dioxo-5S-phenylheptan-1-yl]-3S-3-amino-2-oxo-4-phenylbutyloxy]benzotriazole] | 3000 M⁻¹ s⁻¹ | –

Further lines, results first:

kinact/KI (Calpain I) | kinact/KI (Cathepsin B) | SMILES
116000 M⁻¹ s⁻¹ | 29000 M⁻¹ s⁻¹ | Cc1cc2c(cc1Cl)nnn2OCC(=O)[C@H](Cc1ccccc1)NC(=O)[C@H](CC(C)C)NC(=O)OCc1ccccc1 [Example 13, 1-[N-[N-Benzyloxycarbonyl-L-leucyl]-3S-4-phenyl-3-amino-2-oxobutyloxy]-5'-chloro-6'methylbenzotriazole]
164000 M⁻¹ s⁻¹ | – | CC(C)C[C@H](NC(=O)OCc1ccccc1)C(=O)N[C@@H](Cc1ccccc1)C(=O)COn1nnc2cc(Cl)ccc21 [Example 17, 1-[N-[N-Benzyloxycarbonyl-L-leucyl]-3S-4-phenyl-3-amino-2-oxybutyloxy]-5'-chlorobenzotriazole]
65000 M⁻¹ s⁻¹ | 115000 M⁻¹ s⁻¹ | CC(C)C[C@H](NC(=O)OCc1ccccc1)C(=O)N[C@@H](Cc1ccccc1)C(=O)COn1nnc2cc(Cl)c(Cl)cc21 [Example 18, 1-[N-[N-Benzyloxycarbonyl-L-leucyl]-3S-4-phenyl-3-amino-2-oxybutyloxy]-5',6'-dichlorobenzotriazole]
64000 M⁻¹ s⁻¹ | – | CC(C)C[C@H](NC(=O)OCc1ccccc1)C(=O)N[C@@H](Cc1ccccc1)C(=O)COn1nnc2c(Cl)c(Cl)ccc21 [Example 23, 1-[N-[N-Benzyloxycarbonyl-L-leucyl]-3S-4-phenyl-3-amino-2-oxybutyloxy]-4',5'-dichlorobenzotriazole]
84000 M⁻¹ s⁻¹ | 30000 M⁻¹ s⁻¹ | CCc1cc2c(cc1Cl)nnn2OCC(=O)[C@H](Cc1ccccc1)NC(=O)[C@H](CC(C)C)NC(=O)OCc1ccccc1 [Example 24, 1-[N-[N-Benzyloxycarbonyl-L-leucyl]-3S-4-phenyl-3-amino-2-oxybutyloxy]-5'-chloro-6'-ethylbenzotriazole]
112000 M⁻¹ s⁻¹ | – | Cc1ccc2nnn(OCC(=O)[C@H](Cc3ccccc3)NC(=O)[C@H](CC(C)C)NC(=O)OCc3ccccc3)c2c1 [Example 26, 1-[N-[N-Benzyloxycarbonyl-L-leucyl]-3S-4-phenyl-3-amino-2-oxobutyloxy]-6'-methylbenzotriazole]
230000 M⁻¹ s⁻¹ | – | Cc1ccc2c(c1)nnn2OCC(=O)[C@H](Cc1ccccc1)NC(=O)[C@H](CC(C)C)NC(=O)OCc1ccccc1 [Example 27, 1-[N-[N-Benzyloxycarbonyl-L-leucyl]-3S-4-phenyl-3-amino-2-oxobutyloxy]-5'-methylbenzotriazole]
